Experimental data taken from patent publication US7307082B2, “Heterocyclic derivatives as CRF antagonists” (Roche Palo Alto LLC, priority 2003, dated 2007).

Legend:
CRF receptor = biological target: T1, CRF receptor (Homo sapiens, UniProt P34998); assay: CRF Receptor Binding Assay (competition with [125I]Tyr0-ovine CRF, IMR-32 cell membranes); details: Human IMR-32 neuroblastoma cell membranes
T1 construct: Cell membranes are prepared according the method of Dieterich and DeSouza (1996); endogenous in cells; host or cells: IMR-32 human neuroblastoma cells (membrane preparation)
T1 sequence (P34998 24-415): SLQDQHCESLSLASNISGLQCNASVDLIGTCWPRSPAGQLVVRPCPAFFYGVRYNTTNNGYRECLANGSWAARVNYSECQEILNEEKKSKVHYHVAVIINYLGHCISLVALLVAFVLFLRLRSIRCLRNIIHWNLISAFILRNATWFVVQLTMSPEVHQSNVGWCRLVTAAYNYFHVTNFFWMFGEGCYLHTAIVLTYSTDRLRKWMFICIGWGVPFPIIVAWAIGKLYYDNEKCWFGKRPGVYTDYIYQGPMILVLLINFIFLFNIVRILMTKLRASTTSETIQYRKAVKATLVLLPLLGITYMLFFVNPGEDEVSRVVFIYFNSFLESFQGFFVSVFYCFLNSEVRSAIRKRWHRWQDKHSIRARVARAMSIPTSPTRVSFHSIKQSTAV
Experimental: CRF Receptor Binding Assay
Human IMR-32 neuroblastoma cells are grown to 80% confluence in MEM medium containing 10% heat-inactivated FBS, 1 mM sodium pyruvate, and 0.1 mM nonessential amino acids. Cell membranes are prepared according the method of Dieterich and DeSouza (1996). The cells (˜5E+9) are resuspended in 10 volumes of wash buffer (5 mM Tris HCl, 10 mM MgCl2, 2 mM EGTA, pH 7.4 at RT), homogenized with a Polytron, and then centrifuged at 45,000 G for 20 min at 4° C. The membrane pellets are washed twice with wash buffer (45,000 G for 20 min at 4° C.) and then resuspended (50 mM Tris HCl, 10 mM MgCl2, 2 mM EGTA, pH 7.4 at RT). Protein concentration is determined using Pierce reagents and BSA as standard. Aliquots of 1-1.5 mL are stored at −80° C. until binding assay.
The competition binding assay is performed in a final volume of 250 μl, which contains assay buffer (50 mM Tris-HCl, 10 mM MgCl2, 2 mM EGTA, 0.2% BSA, 0.1 mM bacitracin and 100 kIU/mL aprotinin pH 7.2 at R.T.), 0.05 nM [^125I]Tyr^0-ovine CRF (Du Pont New England Nuclear), 50 μg of membrane protein, and test compound at various concentrations. Non-specific binding is determined with 1 uM hCRF. […] Unbound radioactivity is removed by four rapid washes (0.8 ml/well) with wash buffer. The radioactivity is quantified using a Packard TopCount. […]

Structure (SMILES) | melting point [°C] | IC50 (CRF receptor; 0.05 nM [125I]Tyr0-ovine CRF, 2 hr at 25° C.) [nM] | Ki (CRF receptor; pKi values are derived from pIC50 values) [nM]
CCCC(CCC)N1CCCc2c(C)nc(Nc3ccc(C(C)C)cc3Br)nc21.Cl | 182 to 184 |  | 
CCCC(CCC)N1CCCc2c(C)nc(N(CC)c3ccc(C(C)C)cc3Br)nc21.Cl | 201 to 205 |  | 
CCC(CC)N1CCc2c(C)nc(N(CC)c3c(C)cc(C)cc3C)nc21 [Cpd 2, Ethyl-[7-(1-ethyl-propyl)-4-meth-yl-6,7-dihydro-5H-pyr-rolo[2,3-d]pyrimidin-2-yl]-(2,4,6-tri-methyl-phenyl)-amine;compound with trifluoro-aceticacid] |  | 2090 | 195
CCC(CC)N1C(=O)CCc2c(C)nc(Nc3ccc(C(C)C)cc3Br)nc21 [Cpd 113, 2-(2-Bromo-4-isopropyl-phenyl-amino)-8-(1-ethyl-propyl)-4-meth-yl-5,8-dihydro-6H-pyrido[2,3-d]py-rimidin-7-one] | 124 to 126 |  | 
CCCC(CCC)N1C(=O)CCc2c(C)nc(N(CC)c3ccc(C(C)C)cc3Br)nc21 [Cpd 117, 2-[(2-Bromo-4-isopropyl-phenyl)-eth-yl-amino]-4-methyl-8-(1-propyl-bu-tyl)-5,8-dihydro-6H-pyrido[2,3-d]py-rimidin-7-one] | 92 to 94 |  | 
